# Measurements from patent US11053204B2, “Pyrimidinyloxy benzene derivatives as herbicides” (FMC Corporation, priority 2015, dated 2021).
# Tests used:
# Assay type in all cases: in vivo
# [1] = system: ragweed (common ragweed, Ambrosia elatior); assay: Test A preemergence, visual injury rating; conditions: 0 to 100 scale (0 no effect, 100 complete control)
# Description: (§1) Seeds of plant species selected from barnyardgrass (Echinochloa crus-galli), kochia (Kochia scoparia), ragweed (common ragweed, Ambrosia elatior), Italian ryegrass (Lolium multiflorum), large (Lg) crabgrass (Digitaria sanguinalis), giant foxtail (Setaria faberii), morningglory (Ipomoea spp.), pigweed (Amaranthus retroflexus), velvetleaf (Abutilon theophrasti), wheat (Triticum aestivum), and corn (Zea mays) were planted into a blend of loam soil and sand and treated preemergence with a directed soil spray using test chemicals formulated in a non-phytotoxic solvent mixture which included a surfactant.
# (§2) At the same time, plants selected from these crop and weed species and also blackgrass (Alopecurus myosuroides), and galium (catchweed bedstraw, Galium aparine) were planted in pots containing the same blend of loam soil and sand and treated with postemergence applications of test chemicals formulated in the same manner. Plants ranged in height from 2 to 10 cm and were in the one- to two-leaf stage for the postemergence treatment. Treated plants and untreated controls were maintained in a greenhouse for approximately 10 days, after which time all treated plants were compared to untreated controls and visually evaluated for injury. Plant response ratings, summarized in Table A, are based on a 0 to 100 scale where 0 is no effect and 100 is complete control. A dash (-) response means no test result.
# [2] = system: Italian ryegrass (Lolium multiflorum); assay: Test A preemergence, visual injury rating; conditions: 0 to 100 scale (0 no effect, 100 complete control)
# Description: as §1, §2
# [3] = system: pigweed (Amaranthus retroflexus); assay: Test A preemergence, visual injury rating; conditions: 0 to 100 scale (0 no effect, 100 complete control)
# Description: as §1, §2
# [4] = system: barnyardgrass (Echinochloa crus-galli); assay: Test A preemergence, visual injury rating; conditions: 0 to 100 scale (0 no effect, 100 complete control)
# Description: as §1, §2
# [5] = system: giant foxtail (Setaria faberii); assay: Test A preemergence, visual injury rating; conditions: 0 to 100 scale (0 no effect, 100 complete control)
# Description: as §1, §2
# [6] = system: kochia (Kochia scoparia); assay: Test A preemergence, visual injury rating; conditions: 0 to 100 scale (0 no effect, 100 complete control)
# Description: as §1, §2
# [7] = system: ragweed (common ragweed, Ambrosia elatior); assay: Test A postemergence, visual injury rating; conditions: 0 is no effect, 100 is complete control
# Description: as §1, §2
# [8] = system: Italian ryegrass (Lolium multiflorum); assay: Test A postemergence, visual injury rating; conditions: 0 is no effect, 100 is complete control
# Description: as §1, §2
# [9] = system: wheat (Triticum aestivum); assay: Test A postemergence, visual injury rating; conditions: 0 is no effect, 100 is complete control
# Description: as §1, §2
# [10] = system: pigweed (Amaranthus retroflexus); assay: Test A postemergence, visual injury rating; conditions: 0 is no effect, 100 is complete control
# Description: as §1, §2
# [11] = system: barnyardgrass (Echinochloa crus-galli); assay: Test A postemergence, visual injury rating; conditions: 0 is no effect, 100 is complete control
# Description: as §1, §2
# [12] = system: giant foxtail (Setaria faberii); assay: Test A postemergence, visual injury rating; conditions: 0 is no effect, 100 is complete control
# Description: as §1, §2
# [13] = system: kochia (Kochia scoparia); assay: Test A postemergence, visual injury rating; conditions: 0 is no effect, 100 is complete control
# Description: as §1, §2
# [14] = system: galium (catchweed bedstraw, Galium aparine); assay: Test A postemergence, visual injury rating; conditions: 0 is no effect, 100 is complete control
# Description: as §1, §2
# [15] = system: corn (Zea mays); assay: Test A postemergence, visual injury rating; conditions: 0 is no effect, 100 is complete control
# Description: as §1, §2
# [16] = system: blackgrass (Alopecurus myosuroides); assay: Test A postemergence, visual injury rating; conditions: 0 is no effect, 100 is complete control
# Description: as §1, §2
Compound,Ragweed plant response rating ([1]; 125 g ai/ha),Ragweed plant response rating ([1]; 500 g ai/ha),"Ryegrass, Italian plant response rating ([2]; 125 g ai/ha)","Ryegrass, Italian plant response rating ([2]; 500 g ai/ha)",Pigweed plant response rating ([3]; 125 g ai/ha),Pigweed plant response rating ([3]; 500 g ai/ha),Barnyardgrass plant response rating ([4]; 125 g ai/ha),Barnyardgrass plant response rating ([4]; 500 g ai/ha),"Foxtail, Giant plant response rating ([5]; 125 g ai/ha)","Foxtail, Giant plant response rating ([5]; 500 g ai/ha)",Kochia plant response rating ([6]; 125 g ai/ha),Kochia plant response rating ([6]; 500 g ai/ha),Ragweed plant response rating (0 to 100 scale) ([7]; 125 g ai/ha),Ragweed plant response rating (0 to 100 scale) ([7]; 500 g ai/ha),"Ryegrass, Italian plant response rating (0 to 100 scale) ([8]; 125 g ai/ha)","Ryegrass, Italian plant response rating (0 to 100 scale) ([8]; 500 g ai/ha)",Wheat plant response rating (0 to 100 scale) ([9]; 125 g ai/ha),Wheat plant response rating (0 to 100 scale) ([9]; 500 g ai/ha),Pigweed plant response rating (0 to 100 scale) ([10]; 125 g ai/ha),Pigweed plant response rating (0 to 100 scale) ([10]; 500 g ai/ha),further results
O=C(OCCC(F)(F)F)c1ccccc1Oc1ncc(Cl)cn1 [Compound 17],0,0,0,0,0,10,0,0,0,0,0,0,0,0,0,0,0,0,20,40,"Barnyardgrass plant response rating (0 to 100 scale) ([11]; 125 g ai/ha): 0; Barnyardgrass plant response rating (0 to 100 scale) ([11]; 500 g ai/ha): 0; Foxtail, Giant plant response rating (0 to 100 scale) ([12]; 125 g ai/ha): 0; Foxtail, Giant plant response rating (0 to 100 scale) ([12]; 500 g ai/ha): 0; Kochia plant response rating (0 to 100 scale) ([13]; 125 g ai/ha): 0; Kochia plant response rating (0 to 100 scale) ([13]; 500 g ai/ha): 0; Galium plant response rating (0 to 100 scale) ([14]; 125 g ai/ha): 0; Galium plant response rating (0 to 100 scale) ([14]; 500 g ai/ha): 0; Corn plant response rating (0 to 100 scale) ([15]; 125 g ai/ha): 0; Corn plant response rating (0 to 100 scale) ([15]; 500 g ai/ha): 20; Blackgrass plant response rating (0 to 100 scale) ([16]; 125 g ai/ha): 0; Blackgrass plant response rating (0 to 100 scale) ([16]; 500 g ai/ha): 0"
O=C(OCCC(F)(F)F)c1c(F)cccc1Oc1ncc(Cl)cn1 [Compound 42],0,0,0,0,0,30,0,0,0,0,0,0,0,0,0,0,0,0,80,90,"Barnyardgrass plant response rating (0 to 100 scale) ([11]; 125 g ai/ha): 0; Barnyardgrass plant response rating (0 to 100 scale) ([11]; 500 g ai/ha): 0; Foxtail, Giant plant response rating (0 to 100 scale) ([12]; 125 g ai/ha): 0; Foxtail, Giant plant response rating (0 to 100 scale) ([12]; 500 g ai/ha): 0; Kochia plant response rating (0 to 100 scale) ([13]; 125 g ai/ha): 30; Kochia plant response rating (0 to 100 scale) ([13]; 500 g ai/ha): 60; Galium plant response rating (0 to 100 scale) ([14]; 125 g ai/ha): 0; Galium plant response rating (0 to 100 scale) ([14]; 500 g ai/ha): 0; Corn plant response rating (0 to 100 scale) ([15]; 125 g ai/ha): 20; Corn plant response rating (0 to 100 scale) ([15]; 500 g ai/ha): 30; Blackgrass plant response rating (0 to 100 scale) ([16]; 125 g ai/ha): 0; Blackgrass plant response rating (0 to 100 scale) ([16]; 500 g ai/ha): 0"
